Experiment [1] has as its system VWF- and platelet-rich white thrombi. As to the kind of experiment: Lysis of platelet-rich white thrombi in collagen-coated stenotic capillary tube under arterial shear (perfusion of lytic agents). Type of experiment: cell-based, Porcine. The note with it: 0.02 mg/ml, 60 min perfusion. As to the method:
Collagen Coating: The stenotic glass test sections (inner diameter=1.5 mm) described herein were made by the Chemistry and Biochemistry Glass Shop at Georgia Institute of Technology. The % stenosis by diameter reduction ranged from 60% to 80%. Fibrillar equine collagen (type I; Chrono-Log Corporation, Havertown, PA) was diluted 9:1 in NaCl (Sigma-Aldrich, St. Louis, MO) and incubated in the test section at the stenosis for 24 h in a warm, moist environment (Para, A., Bark, D., Lin, A. & Ku, D. Rapid platelet accumulation leading to thrombotic occlusion. Ann Biomed Eng 39, 1961-1971, 2011; Para, A. N. & Ku, D. N. A low-volume, single pass in-vitro system of high shear thrombosis in a stenosis. Thromb Res 131, 418-424, 2013).
(§1) Blood Collection: Porcine blood was collected at a local abattoir immediately following slaughter into 3.5 U/mL heparin (Thermo Fisher Scientific, Waltham, MA) or 3.2% sodium citrate (Sigma-Aldrich, St. Louis, MO). Whole blood was gently agitated using an Orbit LS shaker (Laboratory Supply Network, Atkinson, NH) until perfusion and used in experiments as soon as possible the same day as collection.
Syringe Perfusion: Lightly heparinized whole blood was perfused through the stenotic test section using a syringe pump. The flow rate was set so that the initial wall shear rate in the stenosis was 3,500 s^−1. A pressure transducer was connected in-line upstream of the stenosis (FIG. 2A). A dissecting microscope with a camera (PCO-Tech Incorporated, Romulus, MI) was used to capture images in real-time during perfusion. Blood perfusion continued until the upstream pressure increased by 30 mmHg (equivalent to an arterial pressure head in vivo) as a result of platelet thrombus formation in the stenotic section. Perfusion with a syringe pump (constant flow rate over constant pressure head) ensured that the thrombi were never fully occlusive, allowing subsequent perfusion for the induction of lysis.
Pharmacologic Agents: Recombinant human tPA (Sigma-Aldrich, St. Louis, MO), recombinant human ADAMTS-13 (MyBiosource, San Diego, CA), abciximab (ReoPro was kindly provided by Dr. Kevin Maher at Emory/CHOA), NAC (Thermo Fisher Scientific, Waltham, MA), and DiNAC (Cayman Chemical, Ann Arbor, Ml) or control (PBS) treatments were perfused for an hour at a flow rate of 1 ml/min. Agent solutions were made by dissolution or dilution in PBS. The in vitro flow system setup and image acquisition are shown in FIG. 2, and the concentrations of each agent are detailed in Table 2.
Real-time image capture (5 frames per second) of the stenosis continued throughout treatment perfusion.
Data Analysis: The thrombi surface area (which was colored green) was calculated using manual pixel counting in the open-source GNU Image Manipulation Program (GIMP, Version 2.10.8, 1995-2018). Surface area reduction was calculated by % pixel reduction versus the occlusion image. Analysis of variance (ANOVA) was used to test for statistical differences between groups, with the significance set at p<0.05.
In this example, a stenotic capillary tube model, which potentiates VWF- and platelet-rich white thrombi in an arterial setting on a collagen-coated stenosis was used (Para, A., Bark, D., Lin, A. & Ku, D. Rapid platelet accumulation leading to thrombotic occlusion. Ann Biomed Eng 39, 1961-1971, 2011; Ku, D. N. & Flannery, C. J. Development of a flow-through system to create occluding thrombus. Biorheology 44, 273-284, 2007; Para, A. N. & Ku, D. N. A low-volume, single pass in-vitro system of high shear thrombosis in a stenosis. Thromb Res 131, 418-424, 2013) to test lysis of 90% occlusive white thrombi (FIG. 2) and perfused low (2 mM) and high (20 mM) concentrations of NAC and DiNAC solutions. As illustrated in FIG. 2. DiNAC, but not NAC, achieved thrombolysis over 60 minutes of perfusion (FIG. 3A-3D). 2 mM and 20 mM DiNAC lysed most of the thrombi (>95%) within 14 min and 1.5 min, respectively (FIG. 3A-3B).

The test system of experiment [2] is fibrin clots from recalcified platelet rich plasma (PRP). The experiment in a line: Red clot lysis under stagnant conditions, PRP clots. Type of experiment: cell-based, Porcine.
From the text: as §1
(§2) Red clot formation and lysis: Platelet rich plasma (PRP) was made by separating citrated whole blood via gravity over a 2 h period and collecting the supernatant. Separation via gravity was employed instead of centrifugation to avoid platelet damage and activation. Citrated whole blood or PRP was then recalcified with CaCl2 to a final [Ca^2+] of 10 mM (Griffin, M. T., Kim, D. & Ku, D. N. Shear-induced platelet aggregation: 3D-grayscale microfluidics for repeatable and localized occlusive thrombosis. Biomicrofluidics 13, 2019), and 200 μl was transferred into 500 μal centrifuge tubes and allowed to clot and retract for 30 min. The clot was then incubated with 100 μl of either agent or control solution. The treatment solution was exchanged by removing the top 100 μl and replacement with fresh solution at 3, 6, 12, 24, and 48 h of incubation. The weight of the tube was measured immediately post-clot formation and at each timepoint after removal of old solution and prior to the replacement with fresh solution.

Experiment [3] has as its system platelet-rich thrombi from heparinized human whole blood. As to the kind of experiment: Example 4: thrombolysis of human blood thrombi in 3 mm collagen-coated stenotic capillary tubes. Type of experiment: cell-based. The note with it: perfusion, human whole blood thrombus. The method, then: In this example, an in-vitro randomized trial was performed using heparinized human blood in collagen-coated glass capillary tubes with a designed stenosis, mimicking arterial disease. Heparinized human blood was then infused through 3 mm capillary tubes at a constant flow rate, during which near-occlusive thrombi were formed at the region of stenosis (FIG. 11). DiNAC was then infused at a constant flow rate through the capillary tubes in order to observe thrombolytic activity, using a combination of live pressure monitoring and microscopic image capture. All infusions were control-matched with a phosphate-buffered saline solution in lieu of DiNAC.

The conditions of experiment [4]: clinical study; cited from earlier work.
Experiment [5] has as its system fibrin clots from recalcified citrated whole blood. The experiment in a line: Red clot lysis under stagnant conditions, whole blood clots. Type of experiment: cell-based, Porcine.
From the text: as §1, §2

For experiment [6], the system named is FeCl3 injury-induced thrombus. More on the design: dose or concentration left out as unconfirmed. The note with it: after a 60 min treatment; FeCl3 injury in vivo; ADAMTS-13; cited from earlier work.
For experiment [7] the following is noted: stroke patients, clinical trial; cited from earlier work.

“tPA: Recombinant human tissue plasminogen activator, a serine protease converting plasminogen to plasmin”: the “thrombus surface area reduction” value in experiment [1] was 23±4%. Moreover, in experiment [2] (48 h, DiNAC and NAC at 2 mM), the “PRP clot lysis over 48 h” value is on record as “large decrease in clot volume”. Besides, the “clot weight reduction from baseline” value came to 36% in experiment [2] (after 12 h) and 26% in experiment [5] (whole blood clot, after 6 h). The “effect on clots and flow” value in experiment [3] is reported as “did not alter the clots or restore flow”. Further, the recanalization rate result in experiment [4] is listed as “less than 30%”. The “clot dissolution front speed” value in experiment [5] (fibrin clots, static conditions, over 48 h) is given as about 3.5 μm/min. Besides, the “whole blood clot lysis over 48 h” value in experiment [5] (whole blood clot, 48 h, DiNAC and NAC at 2 mM) is on record as “large decrease in clot volume”. For the same substance, the “reduction of thrombus size” value in experiment [6] is on record as 53.2%. Further, the “relative risk reduction versus the placebo” value in experiment [7] is 30%.

The values are drawn from patent US20230372272A1, “USE OF CYSTINE AND DERIVATIVES THEREOF AS ANTI-THROMBOTIC AND THROMBOLYTIC AGENTS” (Georgia Tech Research Corporation, priority 2020, published 2023).
